Results: patent US20030225007A1, “Sulfonamide derivatives of 3-substituted imidazol[1,2-d]-1,2,4-thiadiazoles and 3-substituted-[1,2,4] thiadiazolo[4,5-a] benzimidazole as inhibitors of fibrin cross-linking and transglutaminases” (Apotex Inc., priority 2002, published 2003)
Like-named read-outs stand apart in the source and are kept apart here.

What was measured:
[1] = target: T1, Factor XIIIa (activated FXIII) (Homo sapiens, UniProt P00488); experiment: Inactivation of purified Factor XIIIa (monodansylcadaverine incorporation into dimethylcasein, fluorescence); format: biochemical; details: for kinact/KI: purified Factor XIIIa, method of Kitz and Wilson, read-out: Second order rate constant for inactivation
T1 construct: purchased Enzyme Research Laboratories, Ltd
T1 sequence (P00488 39-732 limits assumed): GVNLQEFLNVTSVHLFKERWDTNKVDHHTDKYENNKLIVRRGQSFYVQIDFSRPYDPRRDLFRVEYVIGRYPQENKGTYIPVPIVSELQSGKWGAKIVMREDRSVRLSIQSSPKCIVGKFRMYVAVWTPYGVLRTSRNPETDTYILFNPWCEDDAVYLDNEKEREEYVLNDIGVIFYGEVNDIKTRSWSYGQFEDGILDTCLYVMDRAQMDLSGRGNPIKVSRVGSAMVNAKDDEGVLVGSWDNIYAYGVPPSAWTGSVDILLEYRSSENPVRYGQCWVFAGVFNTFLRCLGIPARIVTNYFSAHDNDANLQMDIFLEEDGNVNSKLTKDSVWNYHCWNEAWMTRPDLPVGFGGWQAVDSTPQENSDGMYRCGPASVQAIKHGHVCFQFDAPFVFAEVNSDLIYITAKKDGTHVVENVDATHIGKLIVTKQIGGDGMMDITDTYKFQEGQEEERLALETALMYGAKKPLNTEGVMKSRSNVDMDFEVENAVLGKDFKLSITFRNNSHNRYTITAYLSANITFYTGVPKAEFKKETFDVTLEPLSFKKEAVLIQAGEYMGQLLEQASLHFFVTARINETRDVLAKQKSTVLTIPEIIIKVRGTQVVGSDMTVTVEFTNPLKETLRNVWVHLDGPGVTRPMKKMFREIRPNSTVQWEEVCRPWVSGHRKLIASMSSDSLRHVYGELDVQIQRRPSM
How it was run: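 Read-out: fluorescence rise (360/500 nm) as 20 μM monodansylcadaverine is built into dimethylcasein at pH 8.0, 10 mM CaCl2. This measures activity left after a 5-min, 37° C., substrate-free exposure of thrombin-activated FXIII to inhibitor. IC50 means 50% inactivation under those conditions; rate constants by Kitz-Wilson method.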

[2] = test system: fibrin cross-linking in human plasma clots; experiment: Inhibition of fibrin cross-linking in plasma clots (125I-fibrinogen, SDS-PAGE); format: biochemical; details: platelet-depleted and platelet-rich human plasma clots; inactivator at 40, 80 and 160 μM, added before thrombin and CaCl2
Experimental: Citrated human plasma (0.3 mL) containing 2-4 μg/mL of ^125I-labeled fibrinogen (specific activity approx. 200 μCi/mg, at least 85% clotability, Amersham Pharmacia Biotech UK Ltd.) was clotted by the addition of CaCl2 (6.4 μL) to a final concentration of 50 mM and thrombin (6.2 μL) to a final concentration of 5 units/mL. Solutions of Factor XIIIa inactivators in DMSO were added just prior to the addition of thrombin and CaCl2. In some cases the inactivator was dissolved and added to plasma in water. To these samples, DMSO (3.2 μL) was added, to make 1% final concentration. Conversely, water (3.2 μL) was added to clots to which inactivator was added in DMSO. In control samples both DMSO (3.2 μL) and water (3.2 μL) were added in place of the inactivator solution. Typically, only 20 μL of the mixture was withdrawn before clotting (the remainder of the solution was used for the fibrinolysis assay) and incubated at 37° C. for 30 min.
100 μL of 9 M urea containing 40 mM DTT was added and the solutions were incubated at 37° C. until the clots were completely dissolved. The samples were analyzed on SDS-PAGE gels using a standard procedure. The amount of radioactivity in each electrophoretic band was quantitated using a Storm 820 (Molecular Dynamics) autoradiography system after exposing the gel to a Kodak Storage Phosphor Screen. […]

[3] = purified activated FXIII, 50% enzyme inactivation after 5-min incubation with inhibitor at 37° C. in the absence of substrate, read-out: FXIIIa (IC50 in μM)
[4] = values without asterisk, purified FXIIIa, 5-min incubation, read-out: FXIIIa IC50 determined by method in Example 16

Compound | kinact/KI [1] [M⁻¹ s⁻¹] | IC50 [1, 3] [µM] | IC50 [1, 4] [µM] | formation of high molecular weight polymer in plasma clots [2]
O=S(=O)(NCCCCCCNc1nsc2nccn12)c1cccc2ccccc12 [1-naphthyl, N-[6-(imidazo[1,2-d][1,2,4]thiadiazol-3-ylamino)hexyl]naphthalene-1-sulfonamide] | 3300 | 0.52 | 0.52 | 
O=S(=O)(Cc1ccccc1)NCCCCCCNc1nsc2nccn12 [2 / CH2Ph, N-[6-(imidazo[1,2-d][1,2,4]thiadiazol-3-ylamino)hexyl]-1-phenylmethanesulfonamide] |  |  | 7.8 | 
O=S(=O)(NCCCCCCNc1nsc2nccn12)c1ccc(F)cc1F [2,4-diF-Ph, 2,4-difluoro-N-[6-(imidazo[1,2-d][1,2,4]thiadiazol-3-ylamino)hexyl]benzenesulfonamide] |  | 1.4 | 1.4 | 
O=S(=O)(NCCCCCCNc1nsc2nccn12)c1ccc(OC(F)(F)F)cc1 [4-OCF3-Ph, N-[6-(imidazo[1,2-d][1,2,4]thiadiazol-3-ylamino)hexyl]-4-trifluoromethoxybenzenesulfonamide] |  |  | 1.6 | 
O=C(O)CN(CCCCCCNS(=O)(=O)c1ccccc1[N+](=O)[O-])c1nsc2nccn12 [H / CH2CO2H / 2-NO2-Ph, N-imidazo[1,2-d][1,2,4]thiadiazol-3-yl-N-(6-{[(2-nitrophenyl)sulfonyl]amino}hexyl)glycine] | 4500 | 0.62 | 0.62 | inhibits the formation of high molecular weight polymer
